Results taken from patent US20210330611A1, “THERAPY FOR NEUROLOGICAL DISEASES/DISORDERS” (priority 2020, published 2021).
Where two headings read alike, the source gives them in different places.

Key:
[1] = tested on: fibrin- and LPS-induced microglia activation; test: cells; assay type: cell-based, rat; conditions: for inhibition at 10 µM: Rattus norvegicus
primary rat microglia [2] = test: Cell toxicity (dead cells, size <150 μm2) in LPS assay; conditions: for LPS % cell toxicity: primary microglia HTS, LPS stimulation, decreased size (<150 μm^2) as marker of toxicity; for IC50: read-out: Cell Toxicity IC50 (uM) [LPS assay], LPS assay
[3] = tested on: fibrin-induced microglia activation; test: Image-based assay of fibrin-induced microglia activation (HTS and dose response); assay type: cell-based, rat; conditions: for IC50 / inhibition at 10 µM: Rattus norvegicus, Microglia; for inhibition at 10 µM: primary microglia HTS, fibrin stimulation, increased cell size (>800 μm^2) as marker of activation, read-out: Fibrin % inhibition
in vitro [4] = conditions: rat, Cell Toxicity IC50 (uM) [cFib assay]
in vitro [5] = conditions: rat
[6] = tested on: LPS-induced microglia activation; test: Image-based assay of LPS-induced microglia activation (HTS and dose response); assay type: cell-based, rat; conditions: Rattus norvegicus, Microglia; for inhibition at 10 µM: primary microglia HTS, LPS stimulation, increased cell size (>800 μm^2) as marker of activation, read-out: LPS % inhibition
primary rat microglia [7] = test: Cell toxicity (dead cells, size <150 μm2) in coated fibrin (cFib) assay; conditions: primary microglia HTS, fibrin stimulation; decreased size (<150 μm^2) as marker of toxicity;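 on Fibrin % cell toxicity: share of dead cells sized under 150 µm2 at 10 µM in fibrin-stimulated microglia HTS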
[8] = HTS of 1907 compounds, quadrant by fibrin and LPS inhibition
[9] = Microglia, Table 3, read-out: Cherry-picked Hit (Suppl. Table 7)
[10] = Microglia, HTS hit classification, read-out: Hit
[11] = quadrant by fibrin and LPS inhibition in HTS of 1907 compounds
[12] = 48 h, Table 1, dose response 0.001-20 μM, triplicates, primary rat microglia, 48 h, read-out: Fibrin IC50
[13] = Table 3, read-out: Fibrin IC50 (uM) (Suppl. Table 7)
[14] = dose response, fibrin-induced microglia activation, read-out: Fibrin IC50
[15] = fibrin-induced microglia activation, dose response, read-out: Fibrin IC50 (uM) (Suppl. Table 7)
[16] = 48 h, Table 1, dose response 0.001-20 μM, triplicates, primary rat microglia, 48 h, read-out: LPS IC50
[17] = LPS-induced microglia activation, dose response, read-out: LPS IC50 (uM) (Suppl. Table 7)
[18] = Table 3, read-out: LPS IC50 (uM) (Suppl. Table 7)
[19] = dose response, LPS-induced microglia activation, read-out: LPS IC50
[20] = Table 6, read-out: Fibrin IC50 (uM) (Suppl. Table 7)
[21] = Table 6, read-out: LPS IC50 (uM) (Suppl. Table 7)

Row | Structure (SMILES) | Quadrant (FIG. 5b) [1, 8] | inhibition at 10 µM [1, 9] [%] | inhibition at 10 µM [1, 10] [%] | Quadrant (FIG. 5b) ([1]; Table 1, screen at 10 μM) | Quadrant (FIG. 5b) ([1]; Table 3, screen at 10 μM) | Quadrant (FIG. 5b) [1, 11] | LPS % cell toxicity (primary rat microglia [2]) [%] | IC50 (primary rat microglia [2]) [µM] | Fibrin Selectivity [3] | IC50 [3, 12] [µM] | IC50 [3, 14] [µM] | IC50 [3, 15] [µM] | inhibition at 10 µM [3] [%] | IC50 (in vitro [4]; cFib assay) [µM] | IC50 (in vitro [5]) [µM] | IC50 [6, 16] [µM] | inhibition at 10 µM ([6]; 48 h) [%] | IC50 [6, 17] [µM] | IC50 [6, 19] [µM] | Fibrin % cell toxicity (primary rat microglia [7]) [%] | other results
1 | CC(=O)OCC(=O)[C@H]1CC[C@H]2[C@@H]3CCC4=CC(=O)CC[C@]4(C)[C@H]3CC[C@]12C [Desoxycorticosterone acetate, reference compound] | Q3 | > 50 | > 50 | Q3 | Q3 | Q3 | 1 | > 20 | 10 | 0.5 | 0.5 | 0.5 | 83 | > 20 | > 20 | 5 | 47 | 5 | 5 | 1 | Fibrin Selectivity (LOG10) [3]: 0.98; IC50 [3, 13]: 0.5 µM; IC50 (in vitro [4]; Table 3): > 20 µM; IC50 [6, 18]: 5 µM
2 | CC(=O)OCC(=O)[C@@]1(O)CC[C@H]2[C@@H]3CCC4=CC(=O)C=C[C@]4(C)[C@@]3(Cl)[C@@H](Cl)C[C@@]21C [Dichlorisone acetate, reference compound] | Q2 | > 50 | > 50 | Q2 | Q2 | Q2 | 1 | > 20 | 169 | 0.03 | 0.03 | 0.03 | 108 | > 20 | > 20 | 4 | 74 | 4 | 4 | 3 | Quadrant (FIG. 5b) ([1]; microglia HTS, Table 6): Q2; IC50 (primary rat microglia [2]; Table 6): > 20 µM; Fibrin Selectivity (LOG10) [3]: 2.23; IC50 [3, 13]: 0.03 µM; IC50 [3, 20]: 0.03 µM; IC50 (in vitro [4]; Table 3): > 20 µM; IC50 (in vitro [4]; cFib assay, Table 6): > 20 µM; IC50 [6, 18]: 4 µM; IC50 [6, 21]: 4 µM
3 | COC(=O)Nc1nc2ccc(Sc3ccccc3)cc2[nH]1 [Fenbendazole, reference compound] | Q3 | – | > 50 | Q3 | – | Q3 | 1 | – | – | 3 | 3 | 3 | 75 | > 20 | > 20 | 4 | 10 | 4 | 4 | 1 | inhibition at 10 µM ([1]; hit classification in microglia HTS, read-out: Cherry-picked Hit (Suppl. Table 7)): > 50%
4 | CC(=O)OCC(=O)[C@@]1(O)CC[C@H]2[C@@H]3CCC4=CC(=O)CC[C@]4(C)[C@@]3(F)[C@@H](O)C[C@@]21C [Fludrocortisone acetate, reference compound] | Q2 | > 50 | > 50 | Q2 | Q2 | Q2 | 4 | > 20 | 362 | < 0.001 | < 0.001 | < 0.001 | 104 | > 20 | > 20 | 0.4 | 101 | 0.4 | 0.4 | 2 | Quadrant (FIG. 5b) ([1]; Table 2, screen at 10 μM): Q2; Activity ([1]; Table 7, fib = fibrin, LPS, tox = toxicity): fib/LPS; Quadrant (FIG. 5b) ([1]; microglia HTS, Table 6): Q2; IC50 (primary rat microglia [2]; Table 6): > 20 µM; Fibrin Selectivity (LOG10) [3]: 2.56; IC50 [3, 13]: < 0.001 µM; IC50 [3, 20]: < 0.001 µM; IC50 ([3]; Table 7, read-out: fib_IC50): 0.002 µM; IC50 (in vitro [4]; Table 3): > 20 µM; IC50 (in vitro [4]; cFib assay, Table 6): > 20 µM; IC50 [6, 18]: 0.4 µM; IC50 [6, 21]: 0.4 µM; IC50 ([6]; Table 7, read-out: LPS_IC50): 0.002 µM
